This note sets out measurements from PubChem BioAssay AID1259407 (Chemical Carcinogenesis Research Information System (CCRIS), 2018).

This series has as its system CCRIS mutagenicity, Ames/micronucleus/aberration tests. The series is described as follows: CCRIS mutagenicity studies.
Where [1] appears, read: Test System: AMES SALMONELLA TYPHIMURIUM, Strain/Indicator: TA97, Metabolic Activation: HAMSTER, LIVER, S-9, AROCLOR 1254 (10%), Method: PREINCUBATION
[2] abbreviates: Test System: AMES SALMONELLA TYPHIMURIUM, Strain/Indicator: TA97, Metabolic Activation: HAMSTER, LIVER, S-9, AROCLOR 1254 (30%), Method: PREINCUBATION
[3] abbreviates: Test System: AMES SALMONELLA TYPHIMURIUM, Strain/Indicator: TA97, Metabolic Activation: NONE, Method: PREINCUBATION
Where [4] appears, read: Test System: AMES SALMONELLA TYPHIMURIUM, Strain/Indicator: TA97, Metabolic Activation: RAT, LIVER, S-9, AROCLOR 1254 (10%), Method: PREINCUBATION
Where [5] appears, read: Test System: AMES SALMONELLA TYPHIMURIUM, Strain/Indicator: TA98, Metabolic Activation: NONE, Method: PREINCUBATION
Setting [6] is: Test System: AMES SALMONELLA TYPHIMURIUM, Strain/Indicator: TA100, Metabolic Activation: NONE, Method: PREINCUBATION
Setting [7] is: Test System: AMES SALMONELLA TYPHIMURIUM, Strain/Indicator: TA1535, Metabolic Activation: HAMSTER, LIVER, S-9, AROCLOR 1254 (10%), Method: PREINCUBATION
The mark [8] stands for this setting: Test System: AMES SALMONELLA TYPHIMURIUM, Strain/Indicator: TA1535, Metabolic Activation: HAMSTER, LIVER, S-9, AROCLOR 1254 (30%), Method: PREINCUBATION
Setting [9] is: Test System: AMES SALMONELLA TYPHIMURIUM, Strain/Indicator: TA1535, Metabolic Activation: NONE, Method: PREINCUBATION

Activity calls are given as the source filed them. How the calls were made is not given here.

Take `O=C1c2ccccc2C(=O)C1c1ccc2ccccc2n1`: the mutagenic call is “inactive; negative” under setting [1]; “inactive; negative” under setting [2]; “inactive; negative” under setting [3]; “inactive; negative” under setting [4]; “inactive; negative” (Test System: AMES SALMONELLA TYPHIMURIUM, Strain/Indicator: TA97, Metabolic Activation: RAT, LIVER, S-9, AROCLOR 1254 (30%), Method: PREINCUBATION); “inactive; negative” (Test System: AMES SALMONELLA TYPHIMURIUM, Strain/Indicator: TA98, Metabolic Activation: HAMSTER, LIVER, S-9, AROCLOR 1254 (5%), Method: PREINCUBATION). The mutagenic call is, setting by setting: (Test System: AMES SALMONELLA TYPHIMURIUM, Strain/Indicator: TA98, Metabolic Activation: HAMSTER, LIVER, S-9, AROCLOR 1254 (10%), Method: PREINCUBATION) “inactive; negative”; (Test System: AMES SALMONELLA TYPHIMURIUM, Strain/Indicator: TA98, Metabolic Activation: HAMSTER, LIVER, S-9, AROCLOR 1254 (30%), Method: PREINCUBATION) “inactive; negative”; under setting [5], “inactive; negative”; (Test System: AMES SALMONELLA TYPHIMURIUM, Strain/Indicator: TA98, Metabolic Activation: RAT, LIVER, S-9, AROCLOR 1254 (5%), Method: PREINCUBATION) “inactive; negative”; (Test System: AMES SALMONELLA TYPHIMURIUM, Strain/Indicator: TA98, Metabolic Activation: RAT, LIVER, S-9, AROCLOR 1254 (10%), Method: PREINCUBATION) “inactive; negative”; (Test System: AMES SALMONELLA TYPHIMURIUM, Strain/Indicator: TA98, Metabolic Activation: RAT, LIVER, S-9, AROCLOR 1254 (30%), Method: PREINCUBATION) “active; positive”. In addition, the mutagenic call is, setting by setting: (Test System: AMES SALMONELLA TYPHIMURIUM, Strain/Indicator: TA100, Metabolic Activation: HAMSTER, LIVER, S-9, AROCLOR 1254 (10%), Method: PREINCUBATION) “inactive; negative”; (Test System: AMES SALMONELLA TYPHIMURIUM, Strain/Indicator: TA100, Metabolic Activation: HAMSTER, LIVER, S-9, AROCLOR 1254 (30%), Method: PREINCUBATION) “active; positive”; under setting [6], “inactive; negative”; (Test System: AMES SALMONELLA TYPHIMURIUM, Strain/Indicator: TA100, Metabolic Activation: RAT, LIVER, S-9, AROCLOR 1254 (5 OR 10%), Method: PREINCUBATION) “inactive; negative”; (Test System: AMES SALMONELLA TYPHIMURIUM, Strain/Indicator: TA100, Metabolic Activation: RAT, LIVER, S-9, AROCLOR 1254 (30%), Method: PREINCUBATION) “active; positive”; under setting [7], “inactive; negative”. Moreover, the mutagenic call is, setting by setting: under setting [8], “inactive; negative”; under setting [9], “inactive; negative”; (Test System: AMES SALMONELLA TYPHIMURIUM, Strain/Indicator: TA1535, Metabolic Activation: RAT, LIVER, S-9, AROCLOR 1254 (10%), Method: PREINCUBATION) “inactive; negative”; (Test System: AMES SALMONELLA TYPHIMURIUM, Strain/Indicator: TA1535, Metabolic Activation: RAT, LIVER, S-9, AROCLOR 1254 (30%), Method: PREINCUBATION) “inactive; negative”; (Test System: AMES SALMONELLA TYPHIMURIUM, Strain/Indicator: TA1537 R+, Metabolic Activation: NONE, Method: STANDARD PLATE) “active; positive”; (Test System: AMES SALMONELLA TYPHIMURIUM, Strain/Indicator: TA1537 R+, Metabolic Activation: RAT, LIVER, S-9, AROCLOR 1254, Method: STANDARD PLATE) “active; positive”. Moreover, the mutagenic call is, setting by setting: (Test System: AMES SALMONELLA TYPHIMURIUM, Strain/Indicator: TA1538, Metabolic Activation: HAMSTER, LIVER, S-9, AROCLOR 1254 (30%), Method: PREINCUBATION) “active; positive”; (Test System: AMES SALMONELLA TYPHIMURIUM, Strain/Indicator: TA1538, Metabolic Activation: RAT, LIVER, S-9, AROCLOR 1254 (30%), Method: PREINCUBATION) “active; positive”.

With `Cc1ccc(S(=O)(=O)NC(=O)NN2CCCCCC2)cc1`, the mutagenic call under setting [1] is “inactive; negative”; the mutagenic call under setting [2] was “inactive; negative”; the mutagenic call under setting [3] was “inactive; negative”; the mutagenic call (Test System: AMES SALMONELLA TYPHIMURIUM, Strain/Indicator: TA97, Metabolic Activation: RAT, LIVER, AROCLOR 1254 (30%), Method: PREINCUBATION) is “inactive; negative”; the mutagenic call under setting [4] was “inactive; negative”; the mutagenic call (Test System: AMES SALMONELLA TYPHIMURIUM, Strain/Indicator: TA98, Metabolic Activation: HAMSTER, LIVER, S-9, AROCLOR 1254 (10 OR 30%), Method: PREINCUBATION) is “inactive; negative”. For the same compound, the mutagenic call under setting [5] was “inactive; negative”; the mutagenic call (Test System: AMES SALMONELLA TYPHIMURIUM, Strain/Indicator: TA98, Metabolic Activation: RAT, LIVER, S-9, AROCLOR 1254 (10 OR 30%), Method: PREINCUBATION) was “inactive; negative”; the mutagenic call (Test System: AMES SALMONELLA TYPHIMURIUM, Strain/Indicator: TA100, Metabolic Activation: HAMSTER, LIVER, S-9, AROCLOR 1254 (10 OR 30%), Method: PREINCUBATION) was “inactive; negative”; the mutagenic call under setting [6] is “inactive; negative”; the mutagenic call (Test System: AMES SALMONELLA TYPHIMURIUM, Strain/Indicator: TA100, Metabolic Activation: RAT, LIVER, S-9, AROCLOR 1254 (10%), Method: PREINCUBATION) is “inactive; negative”; the mutagenic call under setting [7] is “inactive; negative”. For the same compound, the mutagenic call under setting [8] is “active; positive”; the mutagenic call under setting [9] is “inactive; negative”; the mutagenic call (Test System: AMES SALMONELLA TYPHIMURIUM, Strain/Indicator: TA1535, Metabolic Activation: RAT, LIVER, S-9, AROCLOR 1254 (10 OR 30%), Method: PREINCUBATION) is “inactive; negative”.

Consider `O=P(O)(O)OC1C(OP(=O)(O)O)C(OP(=O)(O)O)C(OP(=O)(O)O)C(OP(=O)(O)O)C1OP(=O)(O)O` (stereo not drawn), for which the mutagenic call is “inactive; negative. reevaluation of results: negative” (Test System: MOUSE LYMPHOMA, Strain/Indicator: L5178Y (TK+/TK-), Metabolic Activation: NONE, Method: SUSPENSION/PLATE) and “inactive; negative. reevaluation of results: negative” (Test System: MOUSE LYMPHOMA, Strain/Indicator: L5178Y (TK+/TK-), Metabolic Activation: RAT, LIVER, S-9, AROCLOR 1254, Method: SUSPENSION/PLATE).
